Laboratory results as given in patent US20240424111A1, “Degrader Compounds and Uses Thereof” (CALICO LIFE SCIENCES LLC, priority 2021, published 2024).

Experiments:
PTPN2 [1] = biological target: T1, PTPN2 (Homo sapiens, UniProt P17706); assay: HiBiT PTPN2 degradation in 293T.109 (HiBiT-PTPN2) cells, 24 hours; assay type: cell-based; settings: 293T.109 cells
T1 construct: expressed in transfected cells; host or cells: 293T.109 (HiBiT-PTPN2), derived from 293T WT (ATCC)
T1 sequence (P17706 1-415): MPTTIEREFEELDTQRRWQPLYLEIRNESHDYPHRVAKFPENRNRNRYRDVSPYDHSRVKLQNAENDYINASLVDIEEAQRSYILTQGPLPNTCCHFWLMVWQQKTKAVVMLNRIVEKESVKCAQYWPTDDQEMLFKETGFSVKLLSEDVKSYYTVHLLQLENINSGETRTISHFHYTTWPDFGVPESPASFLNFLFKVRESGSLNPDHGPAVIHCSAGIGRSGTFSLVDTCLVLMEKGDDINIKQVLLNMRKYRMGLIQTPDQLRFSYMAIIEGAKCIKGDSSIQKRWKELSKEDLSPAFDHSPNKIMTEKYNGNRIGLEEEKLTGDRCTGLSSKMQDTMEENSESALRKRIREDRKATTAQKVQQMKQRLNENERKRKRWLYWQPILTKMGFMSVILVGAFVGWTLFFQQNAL
Text: Dulbecco's modified Eagle medium (DMEM) without phenol red and fetal bovine serum (FBS) were purchased from Gibco (Grand Island, NY, USA). Nano-Glo® HiBiT Lytic Assay System was purchased from Promega (Medison, WI, USA). 293T. 109 (HiBiT-PTPN2) cell line was generated by ectopically expressing PTPN2 with N-terminal HiBiT fusion tag in 293T WT cell line purchased from ATCC (Manassas, VA, USA). Cell culture flasks and 384-well microplates were acquired from VWR (Radnor, PA, USA).
PTPN2 Degradation Analysis
(§1) PTPN2 degradation was determined based on quantification of luminescent signal using Nano-Glo® HiBiT Lytic Assay kit. Test compounds were added to the 384-well plate from a top concentration of 10 μM with 11 points, half log titration in duplicates. 293T. 109 cells were added into 384-well plates at a cell density of 5000 cells per well. The plates were kept at 37° C. with 5% CO2 for 24 hours. The cells treated in the absence of the test compound were the negative control and the cells without Nano-Glo® HiBiT Lytic reagent were the positive control. After 24-hour incubation, Nano-Glo® HiBiT Lytic Assay reagents were added to the cells. Luminescence was acquired on EnVision™ Multilabel Reader (PerkinElmer, Santa Clara, CA, USA).

PTPN2 [2] = biological target: T2, PTPN2 (Mus musculus, UniProt Q06180); assay: HiBiT PTPN2 degradation in B16F10.4 cells, 24 hours; assay type: cell-based
T2 construct: HiBiT; host or cells: B16F10.4
T2 sequence (Q06180 1-406): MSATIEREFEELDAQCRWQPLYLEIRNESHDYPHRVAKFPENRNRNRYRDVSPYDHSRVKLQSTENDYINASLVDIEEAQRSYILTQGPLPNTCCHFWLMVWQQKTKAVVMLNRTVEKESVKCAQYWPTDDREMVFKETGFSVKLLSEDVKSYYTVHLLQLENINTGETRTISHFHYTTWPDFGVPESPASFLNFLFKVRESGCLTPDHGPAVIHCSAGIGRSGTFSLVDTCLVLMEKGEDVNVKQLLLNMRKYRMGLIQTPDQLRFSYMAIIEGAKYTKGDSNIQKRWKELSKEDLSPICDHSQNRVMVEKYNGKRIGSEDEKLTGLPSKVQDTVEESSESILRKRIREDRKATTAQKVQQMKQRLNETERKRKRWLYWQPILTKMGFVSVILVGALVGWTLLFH
Protocol: as §1

| SMILES | DC50 (PTPN2 [1]) | DC50 (PTPN2 [2]) |
| --- | --- | --- |
| Cn1c(=O)n(C2CCC(=O)NC2=O)c2ccc(-c3ccc(CC(=O)Nc4ccc5c(F)c(N6CC(=O)NS6(=O)=O)c(O)cc5c4)cc3)c(F)c21 (centres unmarked) [Degrader 40] | 150 to 500 nM | 150 to 500 nM |
| Cn1nc(C2CCC(=O)NC2=O)c2ccc(Nc3ccc(CC(=O)Nc4ccc5c(F)c(N6CC(=O)NS6(=O)=O)c(O)cc5c4)cc3F)cc21 (centres unmarked) [Degrader 41] | < 50 nM | 50 to 150 nM |
| Cn1c(=O)n(C2CCC(=O)NC2=O)c2ccc(Nc3cnn(CC(=O)Nc4ccc5c(F)c(N6CC(=O)NS6(=O)=O)c(O)cc5c4)c3)cc21 (centres unmarked) [Degrader 42] | 50 to 150 nM | 50 to 150 nM |
| Cn1c(=O)n(C2CCC(=O)NC2=O)c2cc(F)c(-c3ccc(CC(=O)Nc4ccc5c(F)c(N6CC(=O)NS6(=O)=O)c(O)cc5c4)cc3)cc21 (centres unmarked) [Degrader 44] | 150 to 500 nM | 150 to 500 nM |
| COCCn1c(=O)n(C2CCC(=O)NC2=O)c2ccc(-c3ccc(CC(=O)Nc4ccc5c(F)c(N6CC(=O)NS6(=O)=O)c(O)cc5c4)cc3)cc21 (centres unmarked) [Degrader 45] | 150 to 500 nM | 150 to 500 nM |
| Cn1nc(C2CCC(=O)NC2=O)c2ccc(Nc3ccc(CC(=O)Nc4ccc5c(F)c(N6CC(=O)NS6(=O)=O)c(O)cc5c4)cc3)cc21 (centres unmarked) [Degrader 48] | 50 to 150 nM | 50 to 150 nM |
| O=C1CCC(N2C(=O)c3cccc4c(N5CCC(CCNC(=O)Nc6ccc7c(F)c(N8CC(=O)NS8(=O)=O)c(O)cc7c6)CC5)ccc2c34)C(=O)N1 (centres unmarked) [Degrader 53] | < 50 nM | < 50 nM |
| O=C(CCC(=O)Nc1ccc2c(F)c(N3CC(=O)NS3(=O)=O)c(O)cc2c1)NCc1ccc2c3c(cccc13)C(=O)N2C1CCC(=O)NC1=O (centres unmarked) [Degrader 54] | 150 to 500 nM | ≥ 500 nM |
| Cn1c(=O)n(C2CCC(=O)NC2=O)c2cc(F)c(N3CCN(CC(=O)Nc4ccc5c(F)c(N6CC(=O)NS6(=O)=O)c(O)cc5c4)CC3)cc21 (centres unmarked) [Degrader 55] | 50 to 150 nM | 150 to 500 nM |
| Cn1c(=O)n(C2CCC(=O)NC2=O)c2ccc(-c3ccc(CC(=O)Nc4ccc5c(F)c(N6CC(=O)NS6(=O)=O)c(O)cc5c4)cc3F)c(F)c21 (centres unmarked) [Degrader 56] | 150 to 500 nM | 50 to 150 nM |
| Cn1c(=O)n(C2CCC(=O)NC2=O)c2cc(F)c(N3CCC(CCNC(=O)Nc4ccc5c(F)c(N6CC(=O)NS6(=O)=O)c(O)cc5c4)CC3)cc21 (centres unmarked) [Degrader 58] | < 50 nM | 150 to 500 nM |
| Cn1c(=O)n(C2CCC(=O)NC2=O)c2ccc(-c3ccc(CC(=O)Nc4ccc5c(F)c(N6CC(=O)NS6(=O)=O)c(O)cc5c4)cc3)nc21 (centres unmarked) [Degrader 60] | 150 to 500 nM | 50 to 150 nM |
| Cn1nc(C2CCC(=O)NC2=O)c2ccc(C3CCN(CCNC(=O)c4ccc5c(F)c(N6CC(=O)NS6(=O)=O)c(O)cc5c4)CC3(F)F)cc21 (centres unmarked) [Degrader 61] | 150 to 500 nM | 150 to 500 nM |
| C[C@H]1CN(CC(=O)Nc2ccc3c(F)c(N4CC(=O)NS4(=O)=O)c(O)cc3c2)CCN1c1cc2c(cc1F)n(C1CCC(=O)NC1=O)c(=O)n2C (some centres unmarked) [Degrader 65] | 150 to 500 nM | ≥ 500 nM |
| C[C@H]1CN(CC(=O)Nc2ccc3c(F)c(N4CC(=O)NS4(=O)=O)c(O)cc3c2)CCN1c1ccc2c(c1F)n(C)c(=O)n2C1CCC(=O)NC1=O (some centres unmarked) [Degrader 66] | 150 to 500 nM | ≥ 500 nM |
| Cn1c(=O)n(C2CCC(=O)NC2=O)c2ccc(N3CCC(O)(CC(=O)N4CC(Oc5ccc6cc(O)c(N7CC(=O)NS7(=O)=O)c(F)c6c5)C4)CC3)cc21 (centres unmarked) [Degrader 67] | 150 to 500 nM | 150 to 500 nM |
| COc1cc(CC(=O)Nc2ccc3c(F)c(N4CC(=O)NS4(=O)=O)c(O)cc3c2)ccc1-c1ccc2c(c1)n(C)c(=O)n2C1CCC(=O)NC1=O (centres unmarked) [Degrader 69] | 150 to 500 nM | 150 to 500 nM |
| Cc1nn(CC(=O)Nc2ccc3c(F)c(N4CC(=O)NS4(=O)=O)c(O)cc3c2)c(C)c1-c1ccc2c(c1)n(C)c(=O)n2C1CCC(=O)NC1=O (centres unmarked) [Degrader 70] | < 50 nM | < 50 nM |
| Cn1c(=O)n(C2CCC(=O)NC2=O)c2ccc(Nc3ccc(CC(=O)Nc4ccc5c(F)c(N6CC(=O)NS6(=O)=O)c(O)cc5c4)cc3F)cc21 (centres unmarked) [Degrader 71] | 50 to 150 nM | 50 to 150 nM |
| Cn1c(=O)n(C2CCC(=O)NC2=O)c2ccc(Nc3cccc(CC(=O)Nc4ccc5c(F)c(N6CC(=O)NS6(=O)=O)c(O)cc5c4)c3)cc21 (centres unmarked) [Degrader 72] | < 50 nM | 50 to 150 nM |
| Cn1c(=O)n(C2CCC(=O)NC2=O)c2ccc(-c3ccc(NC(=O)Nc4ccc5c(F)c(N6CC(=O)NS6(=O)=O)c(O)cc5c4)cc3)cc21 (centres unmarked) [Degrader 73] | 50 to 150 nM | 50 to 150 nM |
| Cn1c(=O)n(C2CCC(=O)NC2=O)c2cc(F)c(N3CCC(O)(CC(=O)Nc4ccc5c(F)c(N6CC(=O)NS6(=O)=O)c(O)cc5c4)CC3)cc21 (centres unmarked) [Degrader 74] | < 50 nM | 150 to 500 nM |
| Cn1c(=O)n(C2CCC(=O)NC2=O)c2ccc3c(c21)CCCN3C1CCN(CC(=O)Nc2ccc3c(F)c(N4CC(=O)NS4(=O)=O)c(O)cc3c2)CC1 (centres unmarked) [Degrader 75] | ≥ 500 nM | ≥ 500 nM |
| Cn1c(=O)n(C2CCC(=O)NC2=O)c2ccc(Oc3ccc(CC(=O)Nc4ccc5c(F)c(N6CC(=O)NS6(=O)=O)c(O)cc5c4)cc3)cc21 (centres unmarked) [Degrader 76] | 50 to 150 nM | 50 to 150 nM |

Results, then the compound that gave them:

| DC50 (PTPN2 [1]) | DC50 (PTPN2 [2]) | SMILES |
| --- | --- | --- |
| < 50 nM | 150 to 500 nM | Cn1c(=O)n(C2CCC(=O)NC2=O)c2cc(F)c(N3CCC(CC(=O)Nc4ccc5c(F)c(N6CC(=O)NS6(=O)=O)c(O)cc5c4)CC3)cc21 (centres unmarked) [Degrader 43] |
| 50 to 150 nM | 150 to 500 nM | Cn1c(=O)n(C2CCC(=O)NC2=O)c2ccc(N3CCC(CC(=O)Nc4ccc5c(F)c(N6CC(=O)NS6(=O)=O)c(O)cc5c4)CC3)c(F)c21 (centres unmarked) [Degrader 46] |
| 50 to 150 nM | < 50 nM | CCn1c(=O)n(C2CCC(=O)NC2=O)c2ccc(-c3ccc(CC(=O)Nc4ccc5c(F)c(N6CC(=O)NS6(=O)=O)c(O)cc5c4)cc3F)cc21 (centres unmarked) [Degrader 47] |
| 50 to 150 nM | 50 to 150 nM | CCn1c(=O)n(C2CCC(=O)NC2=O)c2ccc(-c3ccc(CC(=O)Nc4ccc5c(F)c(N6CC(=O)NS6(=O)=O)c(O)cc5c4)cc3)cc21 (centres unmarked) [Degrader 49] |
| 50 to 150 nM | 150 to 500 nM | Cn1c(=O)n(C2CCC(=O)NC2=O)c2ccc(C3CC4CCC(C3)N4CC(=O)Nc3ccc4c(F)c(N5CC(=O)NS5(=O)=O)c(O)cc4c3)cc21 (centres unmarked) [Degrader 50] |
| 50 to 150 nM | 150 to 500 nM | Cn1c(=O)n(C2CCC(=O)NC2=O)c2ccc(C3CC4CCC(C3)N4CC(=O)Nc3ccc4c(F)c(N5CC(=O)NS5(=O)=O)c(O)cc4c3)cc21 (centres unmarked) [Degrader 51] |
| < 50 nM | 50 to 150 nM | Cn1c(=O)n(C2CCC(=O)NC2=O)c2ccc(C3CCN(CCNC(=O)Nc4ccc5c(F)c(N6CC(=O)NS6(=O)=O)c(O)cc5c4)CC3)cc21 (centres unmarked) [Degrader 52] |
| 50 to 150 nM | 150 to 500 nM | Cn1c(=O)n(C2CCC(=O)NC2=O)c2ccc(N3CCN(CC(=O)Nc4ccc5c(F)c(N6CC(=O)NS6(=O)=O)c(O)cc5c4)CC3)c(F)c21 (centres unmarked) [Degrader 57] |
| 150 to 500 nM | 50 to 150 nM | Cn1c(=O)n(C2CCC(=O)NC2=O)c2ccc(C3CCN(CCNC(=O)c4ccc5c(F)c(N6CC(=O)NS6(=O)=O)c(O)cc5c4)CC3(F)F)cc21 (centres unmarked) [Degrader 59] |
| 150 to 500 nM | 150 to 500 nM | Cn1c(=O)n(C2CCC(=O)NC2=O)c2cccc(N3CCC(CCNC(=O)Nc4ccc5c(F)c(N6CC(=O)NS6(=O)=O)c(O)cc5c4)CC3)c21 (centres unmarked) [Degrader 62] |
| < 50 nM | < 50 nM | CCn1c(=O)n(C2CCC(=O)NC2=O)c2ccc(C3CCN([C@H](CO)C(=O)Nc4ccc5c(F)c(N6CC(=O)NS6(=O)=O)c(O)cc5c4)CC3)cc21 (some centres unmarked) [Degrader 63] |
| < 50 nM | 50 to 150 nM | CCn1c(=O)n(C2CCC(=O)NC2=O)c2ccc(C3CCN([C@@H](CO)C(=O)Nc4ccc5c(F)c(N6CC(=O)NS6(=O)=O)c(O)cc5c4)CC3)cc21 (some centres unmarked) [Degrader 64] |
| 50 to 150 nM | 50 to 150 nM | Cn1c(=O)n(C2CCC(=O)NC2=O)c2ccc(N3CCC(CC4CC4C(=O)Nc4ccc5c(F)c(N6CC(=O)NS6(=O)=O)c(O)cc5c4)CC3)cc21 (centres unmarked) [Degrader 68] |
